The target of assay [1] is D(3) dopamine receptor (Homo sapiens, UniProt P35462). The assay is described as follows: Displacement of [3H]N-methylspiperone from human dopamine D3 receptor at 10 uM incubated for 1 hr by liquid scintillation counting method. In general terms: Displacement assays read how much labelled ligand stays bound in the presence of the test substance.
Assay [2] concerns the target D(2) dopamine receptor (Homo sapiens, UniProt P14416). The experiment in a line: Displacement of [3H]N-methylspiperone from human dopamine D2 receptor at 10 uM incubated for 1 hr by liquid scintillation counting method.
Assay [3] has as its target T1, 5-hydroxytryptamine receptor 2C (Homo sapiens) (UniProt P28335).
T1 sequence (whole entry): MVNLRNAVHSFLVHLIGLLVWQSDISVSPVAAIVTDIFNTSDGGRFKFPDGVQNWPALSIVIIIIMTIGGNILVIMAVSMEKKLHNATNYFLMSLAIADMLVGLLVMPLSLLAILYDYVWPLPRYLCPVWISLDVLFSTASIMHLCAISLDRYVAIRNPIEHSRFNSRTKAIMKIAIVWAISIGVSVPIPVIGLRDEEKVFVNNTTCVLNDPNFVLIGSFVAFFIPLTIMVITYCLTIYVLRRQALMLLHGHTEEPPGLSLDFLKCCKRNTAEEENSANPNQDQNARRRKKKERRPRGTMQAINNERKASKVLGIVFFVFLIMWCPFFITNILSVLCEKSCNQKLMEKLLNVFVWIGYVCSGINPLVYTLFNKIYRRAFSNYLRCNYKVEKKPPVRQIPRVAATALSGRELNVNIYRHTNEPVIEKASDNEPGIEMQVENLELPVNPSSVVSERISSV
The experiment in a line: Displacement of [3H]-Mesulergine from human 5-HT2C receptor at 10 uM incubated for 1 hr by liquid scintillation counting method.

In assay [4] the target is T2, D(4) dopamine receptor (Homo sapiens) (UniProt P21917).
T2 sequence (whole entry): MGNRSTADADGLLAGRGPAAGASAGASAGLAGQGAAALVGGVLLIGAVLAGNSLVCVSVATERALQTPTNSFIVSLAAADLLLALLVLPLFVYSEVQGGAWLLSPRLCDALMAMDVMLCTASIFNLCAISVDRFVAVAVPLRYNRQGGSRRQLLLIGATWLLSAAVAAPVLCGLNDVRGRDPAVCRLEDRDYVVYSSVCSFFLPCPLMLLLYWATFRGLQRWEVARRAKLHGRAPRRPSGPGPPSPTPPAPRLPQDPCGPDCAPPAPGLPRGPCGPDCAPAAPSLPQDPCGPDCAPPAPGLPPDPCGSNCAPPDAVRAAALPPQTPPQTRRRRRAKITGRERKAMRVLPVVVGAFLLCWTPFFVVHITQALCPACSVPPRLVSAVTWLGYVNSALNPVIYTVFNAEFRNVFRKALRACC
The experiment in a line: Displacement of [3H]N-methylspiperone from human dopamine D4 receptor at 10 uM incubated for 1 hr by liquid scintillation counting method.

The source made the active and inactive calls. The rule behind the calls is not given here.

Sequence of D(2) dopamine receptor (P14416 whole entry): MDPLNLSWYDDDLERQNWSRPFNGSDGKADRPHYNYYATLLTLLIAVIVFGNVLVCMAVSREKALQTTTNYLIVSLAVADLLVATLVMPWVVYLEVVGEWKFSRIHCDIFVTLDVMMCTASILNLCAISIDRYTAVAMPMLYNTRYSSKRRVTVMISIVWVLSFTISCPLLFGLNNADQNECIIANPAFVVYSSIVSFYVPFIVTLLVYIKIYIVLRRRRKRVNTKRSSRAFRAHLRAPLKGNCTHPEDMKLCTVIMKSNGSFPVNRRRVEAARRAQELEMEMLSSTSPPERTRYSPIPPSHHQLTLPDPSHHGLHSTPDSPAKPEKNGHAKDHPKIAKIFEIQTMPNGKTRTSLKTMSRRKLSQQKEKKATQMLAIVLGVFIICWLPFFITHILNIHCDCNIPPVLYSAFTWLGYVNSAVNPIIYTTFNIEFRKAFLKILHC
Sequence of D(3) dopamine receptor (P35462 whole entry): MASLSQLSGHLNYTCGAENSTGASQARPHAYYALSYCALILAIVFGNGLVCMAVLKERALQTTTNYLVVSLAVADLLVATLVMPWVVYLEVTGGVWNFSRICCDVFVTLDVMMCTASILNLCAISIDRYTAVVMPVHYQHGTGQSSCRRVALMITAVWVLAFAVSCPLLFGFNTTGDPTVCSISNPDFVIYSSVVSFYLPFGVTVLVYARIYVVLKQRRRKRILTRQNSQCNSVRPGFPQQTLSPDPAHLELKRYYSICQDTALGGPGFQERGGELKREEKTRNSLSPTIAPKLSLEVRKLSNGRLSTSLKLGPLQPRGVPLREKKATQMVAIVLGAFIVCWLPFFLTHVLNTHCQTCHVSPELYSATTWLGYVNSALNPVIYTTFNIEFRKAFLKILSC

With `O=C1c2ccc(Cl)cc2CC1CCN1CCN(c2ccccn2)CC1` (stereo not given), the inhibition entry in assay [1] and in assay [2] was “inactive” each time. In the case of `O=C1c2ccc(Cl)cc2CC1CCCN1CCN(c2ccccn2)CC1` (stereo not given), the inhibition result in assay [2] was “inactive”. As for `O=C1c2ccc(F)cc2CC1CCN1CCN(c2ccccn2)CC1` (stereo not given), the inhibition entry in assay [3] and in assay [2] was “inactive” throughout. On to `O=C1CCc2cc(C(=O)CCCN3CCN(c4ccccn4)CC3)ccc2N1`, for which the inhibition result in assay [3] is “inactive”.

Take `O=C1CCc2cc(OCCCN3CCCN(c4ccccn4)CC3)ccc2N1`: in assay [4], the inhibition result was “inactive”. In the case of `OC1c2ccc(F)cc2CC1CCN1CCN(c2ccccn2)CC1` (stereo not given), in assay [3], the inhibition result was “inactive”. Same read-out and setting: next, `Nc1ccc(CCCCN2CCN(c3ccccn3)CC2)cc1`: “inactive”. As to `O=C1CCc2cc(OCCCN3CCN(c4ccccn4)CC3)ccc21`, the inhibition entry in assay [2] was “inactive”.

Values taken from ChEMBL document CHEMBL4813955 (Eur J Med Chem, 2021).
